Values quoted from earlier work in article PMC7530097 (Chemical communications (Cambridge, England), 2020).

Tests used:
AgrC = conditions: ref [25]
[1] = target: Group-II agr subgroup of S. aureus (Staphylococcus aureus, UniProt O33587); conditions: read-out: IC50 (95% CI) Group-II; β-lactamase reporter cell assay; ref [6]
[2] = target: Group-III agr subgroup of S. aureus (Staphylococcus aureus, UniProt O33590); conditions: read-out: IC50 (95% CI) Group-III; β-lactamase reporter cell assay; ref [6]

Solonamide B
inhibition of AgrC (AgrC): competitively inhibit AgrC

AIP-I
IC50 [1]: 25 nM | IC50 [2]: 3 nM
